According to PubChem BioAssay AID2060892 (Molecular Pharmacology Branch, DTP, NCI, 2025):

Tested on: HOP-62 complex spheroids with HUVEC/MSC, viability
Assay: Anticancer human tumor HOP-62 cell line growth inhibition [RAS];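 further: spheroids exposed to agents for seven days before readout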;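 on viability, T/C: 100% = DMSO vehicle control viability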
Conditions: for IC50: curve of first compound; for viability, T/C: stronger effect = lower value
Outline: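 Tumour cells grown as complex spheroids with HUVEC endothelial cells and mesenchymal stem cells, treated with RAS pathway inhibitor combinations. Each agent spans half-log steps from near clinical Cmax, or 10 microM where Cmax is unknown.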

[1] = second compound 0.000949 µM, first compound 0.00316 µM
[2] = second compound 0.000949 µM, first compound 0.01 µM
[3] = second compound 0.000949 µM, first compound 0.0316 µM
[4] = second compound 0.000949 µM, first compound 0.1 µM
[5] = second compound 0.000949 µM, first compound 0.316 µM
[6] = second compound 0.000949 µM, first compound 1 µM
[7] = second compound 0.003 µM, first compound 0.00316 µM
[8] = second compound 0.003 µM, first compound 0.01 µM
[9] = second compound 0.003 µM, first compound 0.0316 µM
[10] = second compound 0.003 µM, first compound 0.1 µM
[11] = second compound 0.003 µM, first compound 0.316 µM
[12] = second compound 0.003 µM, first compound 1 µM
[13] = second compound 0.00949 µM, first compound 0.00316 µM
[14] = second compound 0.00949 µM, first compound 0.01 µM
[15] = second compound 0.00949 µM, first compound 0.0316 µM
[16] = second compound 0.00949 µM, first compound 0.1 µM
[17] = second compound 0.00949 µM, first compound 0.316 µM
[18] = second compound 0.00949 µM, first compound 1 µM
[19] = second compound 0.03 µM, first compound 0.00316 µM
[20] = second compound 0.03 µM, first compound 0.01 µM
[21] = second compound 0.03 µM, first compound 0.0316 µM
[22] = second compound 0.03 µM, first compound 0.1 µM
[23] = second compound 0.03 µM, first compound 0.316 µM
[24] = second compound 0.03 µM, first compound 1 µM
[25] = second compound 0.0949 µM, first compound 0.00316 µM
[26] = second compound 0.0949 µM, first compound 0.01 µM
[27] = second compound 0.0949 µM, first compound 0.0316 µM
[28] = second compound 0.0949 µM, first compound 0.1 µM
[29] = second compound 0.0949 µM, first compound 0.316 µM
[30] = second compound 0.0949 µM, first compound 1 µM
[31] = second compound 0.3 µM, first compound 0.00316 µM
[32] = second compound 0.3 µM, first compound 0.01 µM
[33] = second compound 0.3 µM, first compound 0.0316 µM
[34] = second compound 0.3 µM, first compound 0.1 µM
[35] = second compound 0.3 µM, first compound 0.316 µM
[36] = second compound 0.3 µM, first compound 1 µM

SMILES: C=CC(=O)Nc1cc(Nc2nccc(-c3cn(C)c4ccccc34)n2)c(OC)cc1N(C)CCN(C)C + CCn1c(-c2cccnc2C(C)OC)c2c3cc(ccc31)N1CCOC(CC(NC(=O)C(C(C)C)N(C)C(=O)C3(F)CCN(C(=O)C#CC(C)(C)N(C)C)CC3)C(=O)N3CCCC(N3)C(=O)OCC(C)(C)C2)C1
- IC50 (second compound 0.000949 µM): > 1000 nM
- IC50 (second compound 0.003 µM): > 1000 nM
- IC50 (second compound 0.00949 µM): > 1000 nM
- IC50 (second compound 0.03 µM): > 1000 nM
- IC50 (second compound 0.0949 µM): > 1000 nM
- IC50 (second compound 0.3 µM): > 1000 nM
- viability, T/C [1]: 100%
- viability, T/C [2]: 107%
- viability, T/C [3]: 83.9%
- viability, T/C [4]: 112%
- viability, T/C [5]: 100%
- viability, T/C [6]: 54%
- viability, T/C [7]: 94.1%
- viability, T/C [8]: 95.4%
- viability, T/C [9]: 94.1%
- viability, T/C [10]: 105%
- viability, T/C [11]: 103%
- viability, T/C [12]: 71.7%
- viability, T/C [13]: 92.3%
- viability, T/C [14]: 84.2%
- viability, T/C [15]: 85.3%
- viability, T/C [16]: 90.4%
- viability, T/C [17]: 73.4%
- viability, T/C [18]: 54.6%
- viability, T/C [19]: 97.5%
- viability, T/C [20]: 90.5%
- viability, T/C [21]: 83.4%
- viability, T/C [22]: 78.6%
- viability, T/C [23]: 60.1%
- viability, T/C [24]: 66.3%
- viability, T/C [25]: 96.7%
- viability, T/C [26]: 80%
- viability, T/C [27]: 84.2%
- viability, T/C [28]: 67.3%
- viability, T/C [29]: 64.3%
- viability, T/C [30]: 58.6%
- viability, T/C [31]: 84%
- viability, T/C [32]: 84%
- viability, T/C [33]: 73.5%
- viability, T/C [34]: 62.1%
- viability, T/C [35]: 60.2%
- viability, T/C [36]: 54.6%

SMILES: CC(Nc1ccc2c(c1)OCCn1cc(N3C(=O)OCC3C(F)F)nc1-2)C(N)=O (stereo unspecified) + CCn1c(-c2cccnc2C(C)OC)c2c3cc(ccc31)N1CCOC(CC(NC(=O)C(C(C)C)N(C)C(=O)C3(F)CCN(C(=O)C#CC(C)(C)N(C)C)CC3)C(=O)N3CCCC(N3)C(=O)OCC(C)(C)C2)C1
- IC50 (second compound 0.000949 µM): 659 nM
- IC50 (second compound 0.003 µM): 649 nM
- IC50 (second compound 0.00949 µM): 326 nM
- IC50 (second compound 0.03 µM): 260 nM
- IC50 (second compound 0.0949 µM): 182 nM
- IC50 (second compound 0.3 µM): 152 nM
- viability, T/C [3]: 99.7%
- viability, T/C [4]: 75.4%
- viability, T/C [5]: 45.1%
- viability, T/C [6]: 54.2%
- viability, T/C (second compound 0.000949 µM, first compound 3.16 µM): 50.6%
- viability, T/C (second compound 0.000949 µM, first compound 10 µM): 23.9%
- viability, T/C [9]: 87%
- viability, T/C [10]: 85.9%
- viability, T/C [11]: 42.3%
- viability, T/C [12]: 50.9%
- viability, T/C (second compound 0.003 µM, first compound 3.16 µM): 36.6%
- viability, T/C (second compound 0.003 µM, first compound 10 µM): 19.6%
- viability, T/C [15]: 99.3%
- viability, T/C [16]: 60.1%
- viability, T/C [17]: 51.9%
- viability, T/C [18]: 46.9%
- viability, T/C (second compound 0.00949 µM, first compound 3.16 µM): 32.1%
- viability, T/C (second compound 0.00949 µM, first compound 10 µM): 22.4%
- viability, T/C [21]: 124%
- viability, T/C [22]: 59.4%
- viability, T/C [23]: 55.2%
- viability, T/C [24]: 42.3%
- viability, T/C (second compound 0.03 µM, first compound 3.16 µM): 25.6%
- viability, T/C (second compound 0.03 µM, first compound 10 µM): 22.8%
- viability, T/C [27]: 103%
- viability, T/C [28]: 53.9%
- viability, T/C [29]: 43.9%
- viability, T/C [30]: 37%
- viability, T/C (second compound 0.0949 µM, first compound 3.16 µM): 20.1%
- viability, T/C (second compound 0.0949 µM, first compound 10 µM): 19%
- viability, T/C [33]: 58.5%
- viability, T/C [34]: 49.8%
- viability, T/C [35]: 47.9%
- viability, T/C [36]: 30.2%
- viability, T/C (second compound 0.3 µM, first compound 3.16 µM): 25.2%
- viability, T/C (second compound 0.3 µM, first compound 10 µM): 19.1%

SMILES: O=C(c1ccc(F)c(F)c1Nc1ccc(I)cc1F)N1CC(O)([C@@H]2CCCCN2)C1 + CCn1c(-c2cccnc2C(C)OC)c2c3cc(ccc31)N1CCOC(CC(NC(=O)C(C(C)C)N(C)C(=O)C3(F)CCN(C(=O)C#CC(C)(C)N(C)C)CC3)C(=O)N3CCCC(N3)C(=O)OCC(C)(C)C2)C1
- IC50 (second compound 0.000949 µM): 378 nM
- IC50 (second compound 0.003 µM): 881 nM
- IC50 (second compound 0.00949 µM): 167 nM
- IC50 (second compound 0.03 µM): 135 nM
- IC50 (second compound 0.0949 µM): 114 nM
- IC50 (second compound 0.3 µM): 71.4 nM
- viability, T/C [1]: 107%
- viability, T/C [2]: 123%
- viability, T/C [3]: 82%
- viability, T/C [4]: 87.2%
- viability, T/C [5]: 52.4%
- viability, T/C [6]: 25.6%
- viability, T/C [7]: 106%
- viability, T/C [8]: 93.9%
- viability, T/C [9]: 90.3%
- viability, T/C [10]: 110%
- viability, T/C [11]: 74.9%
- viability, T/C [12]: 46.9%
- viability, T/C [13]: 85.6%
- viability, T/C [14]: 75.6%
- viability, T/C [15]: 78.3%
- viability, T/C [16]: 60.6%
- viability, T/C [17]: 36.7%
- viability, T/C [18]: 30.9%
- viability, T/C [19]: 88.8%
- viability, T/C [20]: 85.8%
- viability, T/C [21]: 71.8%
- viability, T/C [22]: 60.9%
- viability, T/C [23]: 28.4%
- viability, T/C [24]: 32.6%
- viability, T/C [25]: 87.6%
- viability, T/C [26]: 78.2%
- viability, T/C [27]: 72.2%
- viability, T/C [28]: 55.8%
- viability, T/C [29]: 27.1%
- viability, T/C [30]: 26.6%
- viability, T/C [31]: 82.9%
- viability, T/C [32]: 70%
- viability, T/C [33]: 67.3%
- viability, T/C [34]: 42.4%
- viability, T/C [35]: 31.4%
- viability, T/C [36]: 26.1%
